Read-outs that look alike come from different tables or passages of the source. Starred links: 1 amine or outer side, 2 acyl side, 3 side chain; linkers in the order of their positions; H or OH if unused. Positions of bridges follow the written chain, without caps; N, C: chain ends. Non-standard residues stand in square brackets, D forms with d. Residues, ends and D or L forms follow the SMILES beside them. Groups on a side chain read outwards from the residue. *: point of attachment. Phe(3-OCH2COOH) = N[C@@H](Cc1cccc(OCC(=O)O)c1)C(=O)O; Phe(4-COOH) = N[C@@H](Cc1ccc(C(=O)O)cc1)C(=O)O; Trp(7-aza) = N[C@@H](Cc1c[nH]c2ncccc12)C(=O)O; Piperazinyl(4-CH2COOH) = O=C(O)CN1CCN(*)CC1; Gly(decyl) = CCCCCCCCCC[C@H](N)C(=O)O; Gly(N(CH2)3COOH) = O=C(O)CCCNCC(=O)O; X1 = CCCCCCC[C@H](N[*:1])C(=O)[*:2]; NMeF = CN[C@@H](Cc1ccccc1)C(=O)O; 3Pal = N[C@@H](Cc1cccnc1)C(=O)O; Cha = N[C@@H](CC1CCCCC1)C(=O)O; Gly(N(CH2)3NH2) = NCCCNCC(=O)O; d(hCys) = N[C@H](CCS)C(=O)O; NMeA = CN[C@@H](C)C(=O)O; Dap = NC[C@H](N)C(=O)O; CO = O=C([*:1])[*:2]; Sar = CNCC(=O)O
Assays:
[1] = target: T1, Myostatin (Homo sapiens, UniProt O14793); assay: HepG2 reporter gene assay, Evaluation Procedure (2): 2-concentrations assay, myostatin inhibition; format: cell-based; settings: HepG2
T1 construct: active myostatin (also called mature myostatin) is a homodimer consisting of two C-terminal growth factor domains; purchased R&D systems 788-G8/CF
T1 sequence (O14793 267-375): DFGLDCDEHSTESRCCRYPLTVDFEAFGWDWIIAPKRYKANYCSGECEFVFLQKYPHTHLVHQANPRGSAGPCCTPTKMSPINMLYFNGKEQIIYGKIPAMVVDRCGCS
Method: (§1) The pGL3(CAGA)12-luc plasmid, namely a pGL3 vector (E1751, Promega) having a luciferase gene inserted downstream of a promoter sequence with 12 CAGA repeats attached, was transfected into HepG2 cell line (HB-8065, ATCC). The culture of HepG2 cell line (HB-8065, ATCC) was performed as in the Evaluation Procedure (1).
(§2) Myostatin (788-G8/CF, R&D systems) or GDF-11 (1958-GD-G8/CF, R&D systems) was added at a final concentration of 10 ng/mL. […] At this time, blank wells, in which neither myostatin, GDF-11, nor each peptide was added, were also prepared and incubated in a CO2 incubator (37°C, 5% CO2) for 20 to 24 hours.
(§3) The medium containing the cells was removed, and a mixture containing PBS (14190144, Thermo) and a chromogenic substrate One-Glo Luciferase Assay System (E6120, Promega) at a ratio of 1:1 was added to each well at 100 µL/well. This was stirred with a plate shaker for 5 min and transferred to a 384-well plate (3570, Corning) at a volume of 20 µL/well.
(§4) The plate was centrifuged at 1,000 × g for 1 min and the luminescence signal (700 nm luminescence) was measured using a plate reader (Envision 2104, PerkinElmer). Based on the measurement results, the inhibition rate at each peptide concentration was calculated. […]

[2] = target: T2, GDF-11 (Homo sapiens, UniProt O95390); assay: HepG2 reporter gene assay, Evaluation Procedure (2): 2-concentrations assay, GDF-11 inhibition; format: cell-based; settings: for inhibition: read-out: inhibition rate (GDF-11 inhibition assay); for inhibition at 0.03 µM: HepG2, peptide 30nM, read-out: GDF11 Inhibition 30nM; for inhibition at 0.03 µM / inhibition at 0.1 µM: GDF-11 10 ng/mL; for inhibition at 0.1 µM: HepG2, peptide 100nM, read-out: GDF11 Inhibition 100nM
T2 construct: purchased R&D systems 1958-GD-G8/CF
T2 sequence (O95390 299-407): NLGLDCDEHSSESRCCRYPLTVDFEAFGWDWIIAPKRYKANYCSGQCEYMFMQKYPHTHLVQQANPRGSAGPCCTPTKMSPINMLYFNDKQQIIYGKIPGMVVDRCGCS
Method: as §1, §2, §3, §4

[3] = peptide 30nM, Myostatin 10 ng/mL, read-out: Myostatin Inhibition 30nM
[4] = peptide 100nM, Myostatin 10 ng/mL, read-out: Myostatin Inhibition 100nM

| SMILES | inhibition at 0.1 µM ([1]; Table 7-3/7-4, myostatin 10 ng/mL, peptide at the higher of the 2 concentrations, read-out: inhibition rate (myostatin inhibition assay)) | inhibition at 0.03 µM ([1]; Table 7-3/7-4, myostatin 10 ng/mL, peptide at the lower of the 2 concentrations, read-out: inhibition rate (myostatin inhibition assay)) | inhibition ([2]; HepG2, first GDF-11 column of Table 7-3/7-4, GDF-11 10 ng/mL, peptide at the lower of the 2 concentrations) | inhibition ([2]; HepG2, second GDF-11 column of Table 7-3/7-4, GDF-11 10 ng/mL, peptide at the higher of the 2 concentrations) | inhibition at 0.03 µM [1, 3] | inhibition at 0.1 µM [1, 4] | inhibition at 0.03 µM [2] | inhibition at 0.1 µM [2] |
| --- | --- | --- | --- | --- | --- | --- | --- | --- |
| CCCCCCC[C@@H]1NC(=O)[C@H](Cc2ccccc2)N(C)C(=O)[C@H](CCCNC(=N)N)NC(=O)[C@H](Cc2ccc(C(=O)O)cc2)NC(=O)[C@H](Cc2cccc(OCC(=O)O)c2)NC(=O)[C@H](C)N(C)C(=O)[C@H]([C@@H](C)CC)NC(=O)[C@H](Cc2ccccc2)N(C)C(=O)[C@H](Cc2ccc(O)cc2)NC(=O)[C@H](Cc2c[nH]c3ccccc23)NC(=O)[C@H](C)NC(=O)CN(CCCC(=O)O)C(=O)CSCC[C@H](C(=O)O)NC(=O)[C@H](Cc2ccccc2)N(C)C(=O)[C@H](C)N(C)C1=O [Myostatin_99_v441] ({CH2CO}-[Gly(N(CH2)3COOH)]AWY[NMeF]I[NMeA][Phe(3-OCH2COOH)][Phe(4-COOH)]R[NMeF][X1][NMeA][NMeF][d(hCys)]-OH; thioether N-15) | 100% | 100% | 0% | 0% | – | – | – | – |
| CC[C@H](C)[C@@H]1NC(=O)[C@H](Cc2ccccc2)N(C)C(=O)[C@H](Cc2ccc(O)cc2)NC(=O)[C@H](Cc2c[nH]c3ccccc23)NC(=O)[C@H](CN)NC(=O)CN(CCCN)C(=O)CSC[C@H](C(N)=O)NC(=O)[C@H](Cc2ccccc2)N(C)C(=O)[C@H](C)N(C)C(=O)[C@H](CC(C)C)NC(=O)[C@H](Cc2ccccc2)N(C)C(=O)[C@H](CCCNC(=N)N)NC(=O)[C@H](Cc2ccc(O)cc2)NC(=O)[C@H](Cc2ccc(O)cc2)NC(=O)CN(C)C1=O [Myostatin_99_Variant_13] ({CH2CO}-[Gly(N(CH2)3NH2)][Dap]WY[NMeF]I[Sar]YYR[NMeF]L[NMeA][NMeF][dC]-NH2; thioether N-15) | – | – | – | – | 51% | 76% | 8% | 12% |
| CCCCCCCCCC[C@@H]1NC(=O)[C@H](CC2CCCCC2)NC(=O)[C@H](CCCNC(=N)N)NC(=O)[C@H](Cc2ccc(C(=O)O)cc2)NC(=O)[C@H](CCCCNC(=O)N2CCN(CC(=O)O)CC2)NC(=O)CN(C)C(=O)[C@H]([C@@H](C)CC)NC(=O)[C@H](Cc2ccccc2)N(C)C(=O)[C@H](Cc2ccc(O)cc2)NC(=O)[C@H](Cc2c[nH]c3ccccc23)NC(=O)[C@H](C)NC(=O)[C@H](CCCCNC(=O)N2CCN(CC(=O)O)CC2)NC(=O)CSC[C@H](C(=O)N2CCN(CC(=O)O)CC2)NC(=O)[C@H](Cc2ccccc2)N(C)C(=O)[C@H](C)N(C)C1=O [Myostatin_99_v267] ({CH2CO}-K([CO-Piperazinyl(4-CH2COOH)])AWY[NMeF]I[Sar]K([CO-Piperazinyl(4-CH2COOH)])[Phe(4-COOH)]R[Cha][Gly(decyl)][NMeA][NMeF][dC]-{Piperazinyl(4-CH2COOH)}; thioether N-15) | – | – | – | – | 100% | 100% | 24% | 64% |
| CC[C@H](C)[C@@H]1NC(=O)[C@H](Cc2ccccc2)N(C)C(=O)[C@H](Cc2ccc(O)cc2)NC(=O)[C@H](Cc2c[nH]c3ncccc23)NC(=O)[C@H](C)NC(=O)CN(CCCC(=O)O)C(=O)CSC[C@H](C(N)=O)NC(=O)[C@H](Cc2ccccc2)N(C)C(=O)[C@H](C)N(C)C(=O)[C@H](CC(C)C)NC(=O)[C@H](Cc2ccccc2)N(C)C(=O)[C@H](CCCNC(=N)N)NC(=O)[C@H](Cc2cccnc2)NC(=O)[C@H](Cc2ccccc2)NC(=O)CN(C)C1=O [Myostatin_99_Variant_22] ({CH2CO}-[Gly(N(CH2)3COOH)]A[Trp(7-aza)]Y[NMeF]I[Sar]F[3Pal]R[NMeF]L[NMeA][NMeF][dC]-NH2; thioether N-15) | – | – | – | – | 45% | 72% | 0% | 0% |
